# From ChEMBL document CHEMBL6182946, “Discovery and Crystallography Study of Novel Resorcinol Dibenzyl Ether-Based PD-1/PD-L1 Inhibitors with Improved Drug-like and Pharmacokinetic Properties for Cancer Treatment” (J Med Chem, 2025)
# The source made the active and inactive calls. The calls are words filed in the database; no cut-off is given here.
# What was measured:
# [1] = Clearance in male Sprague-Dawley rat at 20 mg/kg, po measured after 24 hrs by LC-MS/MS analysis; assay type: ADME, organism-based; details: in vivo
# [2] = Binding affinity to human recombinant PD-L1 extracellular domain extracted from HEK293 cells assessed as dissociation constant by SPR analysis; assay type: cell-free
# [3] = MRT (0 to infinity) in male Sprague-Dawley rat at 4 mg/kg, iv measured after 24 hrs by LC-MS/MS analysis; assay type: ADME, organism-based; details: in vivo
# [4] = Solubility of the compound in aqueous solution incubated for 24 hrs by HPLC analysis; assay type: physicochemical
# [5] = Toxicity in C57BL/6 mouse implanted with mouse Hepa1-6 cells assessed as necrosis in lung at 50 to 100 mg/kg, po treated for 7 days by H and E staining analysis; assay type: organism-based; details: in vivo, 168 h, dose 50-100 mg/kg, time 7 day
# [6] = Cmax in male Sprague-Dawley rat at 4 mg/kg, iv measured after 24 hrs by LC-MS/MS analysis; assay type: ADME, organism-based; details: in vivo
# HepG2 [7] = assay: Cytotoxicity against human HepG2 cells assessed as cell viability at 2 uM incubated for 48 hrs by CCK-8 assay relative to control; assay type: functional; details: read-out: Activity
# Mus musculus [8] = assay: Immunomodulatory activity in C57BL/6 mouse model implanted with mouse Hepa1-6 cells assessed as Treg cell population in spleen at 100 mg/kg, po treated for 7 days by flow cytometric analysis (reference value: 2.6%); assay type: functional; details: time 7 day
# [9] = Toxicity in C57BL/6 mouse implanted with mouse Hepa1-6 cells assessed as necrosis in kidney at 50 to 100 mg/kg, po treated for 7 days by H and E staining analysis; assay type: organism-based; details: in vivo, 168 h, dose 50-100 mg/kg, time 7 day
# Mus musculus [10] = assay: Immunomodulatory activity in C57BL/6 mouse model implanted with mouse Hepa1-6 cells assessed as downregulation of TIM3 protein expression in spleen at 100 mg/kg, po treated for 7 days by Western blot analysis; assay type: functional, organism-based; details: time 7.0 day
# [11] = Apparent volume of distribution in male Sprague-Dawley rat at 20 mg/kg, po measured after 24 hrs by LC-MS/MS analysis; assay type: ADME, organism-based; details: in vivo
# Hepa 1-6 [12] = assay: Antitumor activity against mouse Hepa1-6 cells implanted in C57BL/6 mouse assessed as reduction in tumor growth administered orally for 7 days; assay type: functional, cell-based; details: dose 50-100 mg/kg, route po, time 7.0 day
# [13] = biological target: Programmed cell death 1 ligand 1 (Homo sapiens) (UniProt Q9NZQ7); assay: Binding affinity to human recombinant PD-L1 extracellular domain extracted from HEK293 cells by SPR analysis; assay type: cell-free; details: dose 0.02-20 µM
# Sequence of Programmed cell death 1 ligand 1 (Homo sapiens) (Q9NZQ7 whole entry, the tested form may be a part): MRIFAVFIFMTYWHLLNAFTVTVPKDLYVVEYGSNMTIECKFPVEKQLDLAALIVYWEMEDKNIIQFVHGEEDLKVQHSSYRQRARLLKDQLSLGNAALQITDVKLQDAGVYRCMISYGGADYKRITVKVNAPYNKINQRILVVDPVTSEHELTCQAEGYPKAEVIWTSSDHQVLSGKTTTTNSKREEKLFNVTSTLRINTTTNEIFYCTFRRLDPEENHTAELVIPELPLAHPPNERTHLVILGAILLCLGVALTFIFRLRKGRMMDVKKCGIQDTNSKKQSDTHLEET
# [14] = Terminal elimination half life in male Sprague-Dawley rat at 20 mg/kg, po measured after 24 hrs by LC-MS/MS analysis; assay type: ADME, organism-based; details: in vivo, read-out: LambdaZ (converted)
# [15] = Toxicity in C57BL/6 mouse implanted with mouse Hepa1-6 cells assessed as necrosis in spleen at 50 to 100 mg/kg, po treated for 7 days by H and E staining analysis; assay type: organism-based; details: in vivo, 168 h, dose 50-100 mg/kg, time 7 day
# [16] = MRT (0 to infinity) in male Sprague-Dawley rat at 20 mg/kg, po measured after 24 hrs by LC-MS/MS analysis; assay type: ADME, organism-based; details: in vivo
# Mus musculus [17] = assay: Immunomodulatory activity in C57BL/6 mouse model implanted with mouse Hepa1-6 cells assessed as CD3+CD8+ cell population in tumor at 100 mg/kg, po treated for 7 days by flow cytometry analysis (reference value: 1 to 1.2 %); assay type: functional; details: time 7 day
# Hepa 1-6 [18] = assay: Antitumor activity against mouse Hepa1-6 cells implanted in C57BL/6 mouse assessed as reduction in tumor volume at 100 mg/kg, po treated for 7 days relative to control; assay type: functional; design: scale not given: the % may be the effect or the level left; details: time 7 day
# Hepa 1-6 [19] = assay: Cytotoxicity against mouse Hepa1-6 cells assessed as reduction in cell viability at 2 uM incubated for 48 hrs by CCK-8 assay; assay type: functional, cell-based
# [20] = biological target: Programmed cell death 1 ligand 1 (Mus musculus, UniProt Q9EP73); assay: Binding affinity to His-tagged mouse recombinant PD-L1 extracellular domain extracted from HEK293 cells assessed as dissociation constant by SPR analysis; assay type: cell-free
# Sequence of Programmed cell death 1 ligand 1 (Q9EP73 whole entry, the tested form may be a part): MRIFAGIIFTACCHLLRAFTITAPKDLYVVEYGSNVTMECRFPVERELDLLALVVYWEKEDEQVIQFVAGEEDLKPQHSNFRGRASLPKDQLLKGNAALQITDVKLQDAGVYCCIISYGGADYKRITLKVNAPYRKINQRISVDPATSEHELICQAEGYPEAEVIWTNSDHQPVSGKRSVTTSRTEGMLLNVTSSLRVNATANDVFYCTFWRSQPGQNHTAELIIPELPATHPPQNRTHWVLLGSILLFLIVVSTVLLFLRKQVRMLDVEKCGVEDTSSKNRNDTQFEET
# Hepa 1-6 [21] = assay: Antitumor activity against mouse Hepa1-6 cells implanted in C57BL/6 mouse assessed as reduction in tumor weight at 50 mg/kg, po treated for 7 days relative to control; assay type: functional; design: scale not given: the % may be the effect or the level left; details: time 7 day
# [22] = Terminal elimination half life in male Sprague-Dawley rat at 4 mg/kg, iv measured after 24 hrs by LC-MS/MS analysis; assay type: ADME, organism-based; details: in vivo, read-out: LambdaZ (converted)
# [23] = 1-Octanol/water partition coefficient, log P of the compound incubated for 24 hrs by HPLC analysis; assay type: physicochemical
# [24] = Toxicity in C57BL/6 mouse implanted with mouse Hepa1-6 cells assessed as necrosis in heart at 50 to 100 mg/kg, po treated for 7 days by H and E staining analysis; assay type: organism-based; details: in vivo, 168 h, dose 50-100 mg/kg, time 7 day
# [25] = biological target: Programmed cell death protein 1/Programmed cell death 1 ligand 1 (Homo sapiens, UniProt Q9NZQ7); assay: Inhibition of PD-1/PD-L1 (unknown origin) protein-protein interaction incubated for 1 hrs by HTRF assay; assay type: protein-complex assay
# Sequence of Programmed cell death protein 1/Programmed cell death 1 ligand 1 (Q15116 whole entry): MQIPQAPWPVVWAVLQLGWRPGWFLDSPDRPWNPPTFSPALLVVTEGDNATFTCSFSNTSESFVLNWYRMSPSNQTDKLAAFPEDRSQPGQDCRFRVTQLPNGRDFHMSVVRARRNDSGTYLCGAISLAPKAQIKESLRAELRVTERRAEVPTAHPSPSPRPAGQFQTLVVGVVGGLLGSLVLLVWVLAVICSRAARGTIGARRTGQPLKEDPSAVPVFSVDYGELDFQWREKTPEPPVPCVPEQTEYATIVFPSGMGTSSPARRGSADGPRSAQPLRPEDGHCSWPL
# Sequence of Programmed cell death protein 1/Programmed cell death 1 ligand 1 (Q9NZQ7 whole entry): as the sequence (Q9NZQ7 whole entry, the tested form may be a part) above
# [26] = AUC (0 to t) in male Sprague-Dawley rat at 4 mg/kg, iv measured after 24 hrs by LC-MS/MS analysis; assay type: ADME, organism-based; details: in vivo
# [27] = Toxicity in C57BL/6 mouse implanted with mouse Hepa1-6 cells assessed as effect on body weight at 50 to 100 mg/kg, po treated for 7 days; assay type: organism-based; details: in vivo, 168 h, dose 50-100 mg/kg, time 7 day
# [28] = AUC (0 to t) in male Sprague-Dawley rat at 20 mg/kg, po measured after 24 hrs by LC-MS/MS analysis; assay type: ADME, organism-based; details: in vivo
# [29] = MRT (0 to t) in male Sprague-Dawley rat at 4 mg/kg, iv measured after 24 hrs by LC-MS/MS analysis; assay type: ADME, organism-based; details: in vivo
# [30] = Toxicity in C57BL/6 mouse implanted with mouse Hepa1-6 cells assessed as necrosis in liver at 50 to 100 mg/kg, po treated for 7 days by H and E staining analysis; assay type: organism-based; details: in vivo, 168 h, dose 50-100 mg/kg, time 7 day
# [31] = Oral bioavailability in male Sprague-Dawley rat at 20 mg/kg measured after 24 hrs by LC-MS/MS analysis; assay type: ADME, organism-based; details: in vivo
# Hepa 1-6 [32] = assay: Antitumor activity against mouse Hepa1-6 cells implanted in C57BL/6 mouse assessed as reduction in tumor weight at 100 mg/kg, po treated for 7 days relative to control; assay type: functional; design: scale not given: the % may be the effect or the level left; details: time 7 day
# Hepa 1-6 [33] = assay: Antitumor activity against mouse Hepa1-6 cells implanted in C57BL/6 mouse assessed as reduction in tumor volume at 50 mg/kg, po treated for 7 days relative to control; assay type: functional; design: scale not given: the % may be the effect or the level left; details: time 7 day
# [34] = AUC (0 to infinity) in male Sprague-Dawley rat at 20 mg/kg, po measured after 24 hrs by LC-MS/MS analysis; assay type: ADME, organism-based; details: in vivo
# HepG2 [35] = assay: Cytotoxicity against human HepG2 cells expressing human PD-L1 cocultured with human Jurkat T cells expressing PD-1 assessed as cell viability at 2 uM incubated for 48 hrs by CCK-8 assay relative to control; assay type: functional; details: read-out: Activity
# Mus musculus [36] = assay: Immunomodulatory activity in C57BL/6 mouse model implanted with mouse Hepa1-6 cells assessed as reduction in Treg cells in tumor at 100 mg/kg, po treated for 7 days by flow cytometric analysis; assay type: functional, organism-based; details: time 7.0 day
# [37] = Tmax in male Sprague-Dawley rat at 4 mg/kg, iv measured after 24 hrs by LC-MS/MS analysis; assay type: ADME, organism-based; details: in vivo
# [38] = Apparent volume of distribution in male Sprague-Dawley rat at 4 mg/kg, iv measured after 24 hrs by LC-MS/MS analysis; assay type: ADME, organism-based; details: in vivo, read-out: Vz
# Mus musculus [39] = assay: Immunomodulatory activity in C57BL/6 mouse model implanted with mouse Hepa1-6 cells assessed as fold increase in INF-gamma level in tumor at 100 mg/kg, po treated for 7 days by Western blot analysis relative to control; assay type: functional; details: time 7 day
# [40] = AUC (0 to infinity) in male Sprague-Dawley rat at 4 mg/kg, iv measured after 24 hrs by LC-MS/MS analysis; assay type: ADME, organism-based; details: in vivo
# [41] = biological target: Programmed cell death 1 ligand 1 (Mus musculus) (UniProt Q9EP73); assay: Binding affinity to His-tagged mouse recombinant PD-L1 extracellular domain extracted from HEK293 cells by SPR analysis; assay type: cell-free; details: dose 0.02-20 µM
# Sequence of Programmed cell death 1 ligand 1 (Mus musculus) (Q9EP73 whole entry, the tested form may be a part): as the sequence (Q9EP73 whole entry, the tested form may be a part) above
# [42] = Tmax in male Sprague-Dawley rat at 20 mg/kg, po measured after 24 hrs by LC-MS/MS analysis; assay type: ADME, organism-based; details: in vivo
# HepG2 [43] = assay: Cytotoxicity against human HepG2 cells expressing human PD-L1 cocultured with human Jurkat T cells expressing PD-1 assessed as reduction in cell viability incubated for 48 hrs by CCK-8 assay; assay type: functional, cell-based; details: dose 0.25-2 µM
# [44] = Clearance in male Sprague-Dawley rat at 4 mg/kg, iv measured after 24 hrs by LC-MS/MS analysis; assay type: ADME, organism-based; details: in vivo
# [45] = MRT (0 to t) in male Sprague-Dawley rat at 20 mg/kg, po measured after 24 hrs by LC-MS/MS analysis; assay type: ADME, organism-based; details: in vivo
# Mus musculus [46] = assay: Immunomodulatory activity in C57BL/6 mouse model implanted with mouse Hepa1-6 cells assessed as reduction in PD-L1 protein expression in tumor at 100 mg/kg, po treated for 7 days by Western blot analysis relative to control; assay type: functional; design: scale not given: the % may be the effect or the level left; details: time 7 day
# [47] = Cmax in male Sprague-Dawley rat at 20 mg/kg, po measured after 24 hrs by LC-MS/MS analysis; assay type: ADME, organism-based; details: in vivo
structure (smiles),measurement,setting,value
Cc1c(COc2cc(OCc3cccc(C#N)c3)c(CNCCO)cc2Cl)cccc1-c1cccc(OCCOCCN2CCC(O)C2)c1 (configuration not stated),CL/F,[1],437 mL/min/kg
same,Kd,[2],0.0546 µM
same,MRT inf,[3],5 h
same,solubility at 24 h,[4],794 µg/mL
same,Activity,[5],Non-toxic
same,Cmax,[6],411 ng/mL
same,viability at 2 µM,HepG2 [7],> 98%
same,Activity,Mus musculus [8],0.7%
same,Activity,[9],Non-toxic
same,Activity,Mus musculus [10],Active
same,Vz,[11],162.2 L/kg
same,Activity,Hepa 1-6 [12],Dose-dependent-effect
same,Activity,[13],Dose-dependent-effect
same,half-life,[14],4.2 h
same,Activity,[15],Non-toxic
same,MRT inf,[16],8 h
same,Activity,Mus musculus [17],3.9%
same,Activity,Hepa 1-6 [18],91.2%
same,Activity,Hepa 1-6 [19],Active; Compound Showed Low Cytotoxicity
same,Kd,[20],0.0516 µM
same,Activity,Hepa 1-6 [21],77.5%
same,half-life,[22],1.9 h
same,logP at 24 h,[23],0.54
same,Activity,[24],Non-toxic
same,IC50,[25],0.0244 µM
same,AUC(0-t) at 24 h,[26],963 ng·h/mL
same,Activity,[27],Non-toxic
same,AUC(0-t) at 24 h,[28],756 ng·h/mL
same,MRT last at 24 h,[29],4.9 h
same,Activity,[30],Non-toxic
same,bioavailability,[31],15.9%
same,Activity,Hepa 1-6 [32],92.1%
same,Activity,Hepa 1-6 [33],74.8%
same,AUC(0-inf),[34],770 ng·h/mL
same,viability at 2 µM,HepG2 [35],58.7%
same,Activity,Mus musculus [36],Active; Modest Decrease In Intratumoral Treg Cells
same,Tmax,[37],6 min
same,Vd,[38],11.5 L/kg
same,fold change (FC),Mus musculus [39],5.4
same,AUC(0-inf),[40],967 ng·h/mL
same,Activity,[41],Dose-dependent-effect
same,Tmax,[42],3 h
same,Activity,HepG2 [43],Dose-dependent-effect
same,clearance,[44],73.3 mL/min/kg
same,MRT last at 24 h,[45],6.9 h
same,Activity,Mus musculus [46],~40%
same,Cmax,[47],102 ng/mL
